Several values for one entry are separate records, joined by “and”; a condition that tells them apart may be missing. Identical values can stand only once. Entries after “also recorded” stand apart in the source; their conditions may differ. Like-named read-outs stand apart in the source and are kept apart here. Each block holds one compound with its values, some of them ahead of it.
Columns and labels:
E. coli RelA [1] = molecular target: T1, E. coli RelA (Escherichia coli, UniProt P0AG20); design: method as in PMID 20483622; settings: read-out: IC50 / concentration for 50% inhibition of E. coli RelA; in the test tube; cited from earlier work
T1 construct: made in house
T1 sequence (P0AG20 whole entry): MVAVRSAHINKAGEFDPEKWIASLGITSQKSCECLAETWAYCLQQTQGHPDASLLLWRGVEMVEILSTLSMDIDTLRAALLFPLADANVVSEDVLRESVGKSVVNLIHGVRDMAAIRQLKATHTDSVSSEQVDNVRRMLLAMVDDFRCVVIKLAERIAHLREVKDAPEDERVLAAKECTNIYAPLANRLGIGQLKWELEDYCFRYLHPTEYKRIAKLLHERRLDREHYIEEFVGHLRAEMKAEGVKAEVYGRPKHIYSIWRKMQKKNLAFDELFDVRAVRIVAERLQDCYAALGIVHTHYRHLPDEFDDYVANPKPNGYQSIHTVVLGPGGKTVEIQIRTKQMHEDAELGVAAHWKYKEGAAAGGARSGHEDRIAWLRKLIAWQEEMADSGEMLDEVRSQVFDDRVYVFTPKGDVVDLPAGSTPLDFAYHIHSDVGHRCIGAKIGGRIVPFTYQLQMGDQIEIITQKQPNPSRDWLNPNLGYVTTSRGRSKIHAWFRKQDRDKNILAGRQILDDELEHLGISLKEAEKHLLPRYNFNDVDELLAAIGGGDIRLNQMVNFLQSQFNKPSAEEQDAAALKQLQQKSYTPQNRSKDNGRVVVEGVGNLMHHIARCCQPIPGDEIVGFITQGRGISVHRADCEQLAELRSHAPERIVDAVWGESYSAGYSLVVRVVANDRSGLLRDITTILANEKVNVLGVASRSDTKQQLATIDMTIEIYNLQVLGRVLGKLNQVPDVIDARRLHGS

E. coli RelA [2] = molecular target: T1, E. coli RelA; assay: Inhibition of [3H]GDP to [3H]ppGpp conversion by E. coli RelA activated by vacant 70S ribosomes and 100 μM ppGpp; format: biochemical; settings: for IC50: 30 nM RelA, 0.5 μM vacant 70S, 100 μM ppGpp; for nHill (Hill coefficient of the titration fit): Supplementary Table 1, 4-parameter logistic model
Procedure: For the initial characterization of compounds, we followed the inhibition of [^3H] GDP conversion to [^3H] ppGpp catalyzed by E. coli RelA in a simplified system in which RelA’s activity was induced by vacant 70S ribosomes and 100 μM of ppGpp[15]. Unlabeled ppGpp was added to reaction mixtures in order to linearize the kinetics of [^3H] ppGpp synthesis due to an activating effect on the RelA enzyme. We used a targeted library of 69 nucleotides belonging to several structural classes: ‘true’ ppGpp analogues; Relacin and its derivatives; pyrrolidine, azetidine, piperidine and acyclic phosphonates. Chemical structures of tested compounds and titrations in the RelA:70S:ppGpp system are presented in Supplementary Table 1.
(§1) Detailed description of experimental procedures can be found in Supplementary Text. Biochemical assays utilize in vitro translation[58] and stringent response[15] systems from E. coli purified components. Experiments were performed in HEPES:Polymix[58] buffer with either 5 (for enzymatically assembled initiation complexes) or 15 mM (for vacant 70 S, as well as non-enzymatically assembled programmed ribosomes) Mg^2+. Expression and purification of E. faecalis RelQ was performed as per Gaca (2015) and colleagues. GTPase and ppGpp synthesis were followed using TLC separation and radiochemical detection of ^3H-labelled nucleotides. Multiple round in vitro transcription assays were performed as per Bernardo et al.[49] with minor modifications. Inhibition efficiency (IC50) was calculated using 4-parameter logistic model (Hill equation) as per Sebaugh[60].
(§2) Thin layer chromatography (TLC) analysis of nucleotide mixtures
(§3) Both EF-G GTPase reaction and ppGpp synthesis by RelA were followed by TLC analysis followed by scintillation counting according to Mechold and colleagues, with modifications1. Time points from the reaction mixtures (5 μl, see below for details) were quenched by addition 4 μl 70% formic acid supplemented with a cold nucleotide standard used for UV-shadowing (10 mM GDP and 10 mM GTP) and spotted on PEI-TLC plates (Macherey-Nagel). TLC was run in buffer, plates dried, cut into sections guided by UV-shadowing and 3H radioactivity was quantified by scintillation counting in Optisafe-3 (Fisher) scintillation cocktail on Perkin Elmer Tricarb 2810TR counter. Conversion of substrate to product was quantified as described in Shyp et al. (2012)2.
Enzymatic assays with E. coli RelA
Screening: all experiments were performed in HEPES:Polymix, Mg2+ of 5 mM, 37 […]
μM ppGpp was pre-incubated at 37° C for 2 min and then reaction started by addition of 1 mM ATP, time points (5 μl) taken, quenched with formic acid and analyzed by TLC. Inhibition efficiency (IC50) was calculated using 4-parameter logistic model (Hill equation) as per Sebaugh (2011)3. […]

E. coli EF-G = system: T2, E. coli EF-G; format: biochemical
T2 construct: made in house
Procedure: as §2
as §3, with “(2012)2. […]” for “(2012)2.”
GTPase assays with E. coli EF-G
The reaction mixture contained 0.5 μM 70S, 0.1 μM EF-G, in HEPES:Polymix (25 mM Hepes 7.5/ 1 mM DTT / 5 mM Mg2+) pre-incubated for 2 minutes at 37°C prior to addition of 300 μM [3H]GTP substrate (Hartman), after which time points (5 μl) taken, quenched with formic acid and analyzed by TLC (see above). […]

[3] = system: T3, E. coli σ70-RNAP holoenzyme; assay: Multiple round in vitro transcription by σ70-RNAP (rrnB P1 and rna1 promoters); format: biochemical, Escherichia coli; settings: concentrations up to 5 mM; regardless of presence or absence of 2 μM DksA and 100 μM ppGpp
T3 construct: purchased Epicentre
Procedure: Next, we tested their effects on RNAP. […] We used multiple round in vitro transcription driven from the rrnB P1, a well-characterized ppGpp/DksA inhibited promoter, as described earlier[49]. The assays were performed in the presence and absence of 2 μM DksA and/or 100 μM ppGpp (Fig. 5a).
Effect of inhibitors on rrnB P1 (−66 to +50) promoter transcription by RNAP. Graphs depicting inhibitor (0, 0.025, 0.05, 0.15, 0.4 and 0.6 mM) titrations performed at 30 °C in T-buffer with 0.5 nM template (σ^70-rrnB P1 promoter (pRLG6214)) and 5 nM σ^70-RNAP, in presence or absence of 100 μM ppGpp and/or 2 μM DksA. Error bars represent standard deviations of linear regression estimates, each experiment was performed at least three times.
The assays were performed as per Bernardo et al. (2006)4 with minor modifications. Reactions were carried out in T-buffer (50 mM Tris-HCl pH 7.5, 100 mM NaCl, 10 mM MgCl2, 1 mM dithiothreitol, 0.1 mM EDTA and 0.275 mg of BSA per ml) at 30°C. Inhibitors were titrated to final concentrations of 0, 0.025, 0.05, 0.15, 0.4 and 0.6 mM. E. coli s 70-RNAP holoenzyme (Epicentre, final concentration 5 nM) and template plasmid DNA containing s70-rrnB P1 promoter, (pRLG6214, final concentration 0.5 nM) was used for all experiments. Before initiation of transcription, E. coli s70-RNAP holoenzyme and T buffer were incubated at 30°C for 5 min. Above mix was added to predispensed mixture of inhibitor and the template plasmid DNA containing s70-rrnB P1 promoter (pRLG6214), incubated for further 20 min to initiate open complex formation. 2.5 µl of a mixture of ATP (ﬁnal concentration 0.5 mM), GTP and CTP (ﬁnal concentration 0.2 mM each), UTP (ﬁnal concentration 0.08 mM) and [a-32P]-UTP (5 µCi at > 3000 Ci/mmol, PerkinElmer) was added to initiate transcription by RNAP. After 7 min, 1 µl heparin (0.125 mg/ml ﬁnal concentration) was added to the reaction mixture to prevent re-initiation and further incubated for 5 min to allow completion of initiated transcripts. Transcription was terminated by addition of formamide loading buffer and samples were electrophoresed on a 7M urea-5% polyacrylamide gel and quantified by phosphorimaging.

[4] = molecular target: T4, E. faecalis SAS RelQ (RelQEf) (Enterococcus faecalis, UniProt Q830U9); settings: found earlier; cited from earlier work
T4 sequence (Q830U9 entry or part of it): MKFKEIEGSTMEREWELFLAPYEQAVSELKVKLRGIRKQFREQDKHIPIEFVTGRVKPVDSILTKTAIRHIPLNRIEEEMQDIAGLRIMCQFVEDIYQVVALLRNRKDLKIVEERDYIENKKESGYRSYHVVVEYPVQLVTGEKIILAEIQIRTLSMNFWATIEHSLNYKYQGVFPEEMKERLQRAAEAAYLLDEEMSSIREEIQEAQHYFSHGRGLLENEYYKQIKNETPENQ

Bacillus subtilis = system: Bacillus subtilis; design: method as in PMID 20483622; settings: mM-range concentrations; cited from earlier work
[5] = system: transcription or translation in E. coli reconstituted systems; design: method as in PMID 7047215; settings: cited from earlier work
[6] = molecular target: T4, E. faecalis SAS RelQ (RelQEf); assay: Inhibition of E. faecalis SAS RelQ ppGpp synthesis; format: biochemical; settings: concentrations up to 1 mM
Excerpt: In E. coli, ppGpp is synthesized by the multi-domain RSHs RelA and SpoT, however, numerous single-domain RSHs – Small Alarmone Synthetases (SAS) – are widely distributed across bacterial taxa[3]. […] Therefore we tested the effects of DR-4250, DR-M014 and DR-5163 on RelQEf activity (Supplementary Figure 2).
as §1
RelQ activity0.4 RelQ activity0.4 RelQ activity0.4
Supplementary Figure 2 | Inhibition of E. faecalis SAS RelQ by DR-4250, DR-
M014 and DR-5163 is inefficient. The reaction mixture contains 0.25 µM RelQEf,
300 µM [3H] GDP, 0.5 mg/ml BSA, 100 µM ppGpp, 1 mM ATP in Hepes:Polymix at […]

ΔywaCΔyjbM B. subtilis = assay: Growth of ΔywaCΔyjbM B. subtilis in valine drop-out S7 medium (functional test for Rel inhibition); format: cell-based, Bacillus subtilis; settings: up to 1 mM (0 to 1000 µM)
Excerpt: Finally, we tested the three of our most promising inhibitors (DR-4250, DR-M014 and DR-5163) for RSH inhibition in bacterial culture. For this we used the Gram-positive bacterium B. subtilis due to its better uptake of compounds as compared to Gram-negative species such as E. coli[50]. The functional test for RSH inhibition relied on the auxotrophy of (p)ppGpp-deficient (ppGpp^0) B. subtilis for methionine and branched-chain amino acids valine, leucine and isoleucine. The B. subtilis RSH repertoire consists of one multi-domain ribosome-associated enzyme Rel and two SAS, YwaC and YjbM[3][52]. Because the SAS RelQEf is refractory to inhibition by our test compounds (Supplementary Figure 2), we used a B. subtilis strain lacking SASs (ΔywaCΔyjbM), in which the sole source of (p)ppGpp is Rel[53]. Defined S7 medium[54] lacking valine supports the growth of ΔywaCΔyjbM B. subtilis, but not the ppGpp^0 stain (Supplementary Figure 5). […] This is indicative of the test compounds failing to inhibit Rel and thereby rendering the strain phenotypically ppGpp^0 (Supplementary Figure 5). A lack of cellular uptake is a likely explanation. […]
Growth assays with Bacillus subtilis BSB1 wild type strain
SAS deletion and ppGpp0 strain of B. subtilis5 were grown in S7 liquid medium6 except for amino acid requirements, which were met as described elsewhere 7. On 96-well plate, 90 µl of B subtilis starter culture was mixed with 10 µL of compound dilution (in 5 mM Tris pH 7.2) so that final OD600 was 0.025 (l = 1 cm).
Following incubation was without shaking at 37°C and growth was monitored with Tecan Infinite M200 at OD600 (raw OD600 values are reported). B. subtilis starter culture was prepared as follows. Late exponential phase cells in S7, with full set of amino acids, were diluted ≈10-fold in S7 lacking either valine or lysine so that, after addition of 8% DMSO, OD600 was 0.25. Next, cell suspensions were aliquoted, frozen in liquid nitrogen, and stored at -80°C. Just before the experiment, cells were thawed on ice and appropriate amount of media was […]
DywaC DyjbM BSB1 B. subtilis ppGpp0. BSB1 B. subtilis wild type strain as grown on S7 synthetic media8 drop-out media lacking valine which abolishes the growth of ppGpp0 (Drel DywaC DyjbM) strain due to valine auxotrophy (dashed line). […]
inhibit the Rel and render the strain ppGpp0.

[7] = molecular target: 70S initiation complexes programmed with mRNA(MF) (E. coli) (UniProt P0AG67); assay: co-sedimentation; spin-down assay: 2 uM RelA, 1 uM 70S initiation complexes programmed with mRNA(MF), with or without 3 uM deacylated tRNA-Phe and 500 uM DR-4250 or DR-M014; 37 C for 15 min; 30% sucrose cushion, 70,000 r.p.m., 25 min, 12 C; pellets on 10% SDS-PAGE; the stoichiometry is told for the sample with A-site deacylated tRNA-Phe
[8] = 0.3 mM [3H]GDP, 1 mM ATP, read-out: IC50

Chain of Escherichia coli RelA (P0AG20 whole entry): as the sequence (P0AG20 whole entry) above

Compound: Nc1nc2c(ncn2[C@H]2C[C@H](OP(=O)(O)CP(=O)(O)O)[C@@H](COP(=O)(O)CP(=O)(O)O)O2)c(=O)[nH]1 [(10), 2′-deoxyguanosine-3′-5′-di(methylene bisphosphonate)]
IC50 (E. coli RelA [1]): ~1000 µM and 1000 µM

Compound: CC(C)C(=O)Nc1nc2c(ncn2[C@H]2C[C@H](OC(=O)NCC(=O)NCC(=O)O)[C@@H](COC(=O)NCC(=O)NCC(=O)O)O2)c(=O)[nH]1 [Relacin, reference compound]
IC50 (E. coli RelA [2]; [8]): 0.84 ± 0.2 mM | nHill (Hill coefficient of the titration fit) (E. coli RelA [2]): 1.8 ± 0.001 | Inhibitory effect on EF-G GTPase activity (in words) (E. coli EF-G; up to 5 mM): no inhibitory effect | Effect on rrnB P1 transcription by RNAP (in words) [3]: mild inhibitory effect | Sensitivity of RelQEf to Relacin (in words) [4]: virtually insensitive | Biological effect on Bacillus subtilis (in words) (Bacillus subtilis): has a biological effect

Compound: Nc1ncnc2c1ncn2C1OC(COP(=O)(O)OP(=O)(O)O)C(OP(=O)(O)OP(=O)(O)O)C1O (stereo not shown) [ppApp]
IC50 (E. coli RelA [2]; [8]): 0.0245 ± 0.0035 mM | nHill (Hill coefficient of the titration fit) (E. coli RelA [2]): 0.7 ± 0.1 | Activation of RelA's synthetic activity (in words) (E. coli RelA [2]; ppGpp up to 100 μM, ppApp 50 µM-1 mM, thio-ppGpp 100 µM (Supplementary Figure 1)): do not activate; also recorded: neither ppApp nor 6-thio-ppGpp activate | Inhibitory effect on EF-G GTPase activity (in words) (E. coli EF-G; up to 100 μM): no inhibitory effect | Inhibitory effect on transcription or translation (in words) [5]: does not have a pronounced inhibitory effect

Compound: Nc1nc2c(ncn2CCNC(=O)P(=O)(O)O)c(=O)[nH]1 [DR-5163]
IC50 (E. coli RelA [2]; [8]): 0.245 ± 0.039 mM | IC50 (E. coli RelA [2]; 5 mM Mg2+, 37 °C, no unit beside the value, titration axis in mM, read-out: IC50 (Supplementary Table 1, example titration)): 0.25 ± 0.05 mM | nHill (Hill coefficient of the titration fit) (E. coli RelA [2]): 1.3 ± 0.26 | Effect on RelQEf activity (in words) [6]: inefficient; also recorded: almost inactive | Inhibitory effect on EF-G GTPase activity (in words) (E. coli EF-G; up to 1 mM): no inhibitory effect | Effect on growth of ΔywaCΔyjbM B. subtilis (in words) (ΔywaCΔyjbM B. subtilis): did not affect bacterial growth; also recorded: does not affect the growth

stoichiometry N [7]: 1
Compound: Escherichia coli RelA (from UniProt P0AG20 1-744) (enzyme)
